# What was measured:
# Sclerotinia sclerotiorum = assay: Sclerotinia sclerotiorum/Liquid Culture (Cottony Rot); settings: read-out: control of Sclerotinia sclerotiorum
# Description: Mycelia fragments of a newly grown liquid culture of the fungus are directly mixed into nutrient broth (Vogels broth). After placing a (DMSO) solution of test compound into a microtiter plate (96-well format) the nutrient broth containing the fungal material is added. The test plates are incubated at 24° C. and the inhibition of growth is determined photometrically 3-4 days after application.
# Fusarium culmorum [1] = assay: microbe, parasite or virus in culture; type: cell-based; settings: read-out: control of Fusarium culmorum
# [2] = tested on: Monographella nivalis (Microdochium nivale); assay: Monographella nivalis (Microdochium nivale)/Liquid Culture (Foot Rot Cereals); type: cell-based; settings: 200 ppm, liquid culture, compared to untreated control, 4-5 days after application, read-out: control of Monographella nivalis
# [3] = tested on: Magnaporthe grisea (Pyricularia oryzae); assay: whole plant or invertebrate; type: in vivo; settings: foliar, read-out: control of Magnaporthe grisea
# [4] = tested on: Botryotinia fuckeliana (Botrytis cinerea); assay: Botryotinia fuckeliana (Botrytis cinerea)/Liquid Culture (Gray Mould); type: cell-based; settings: 200 ppm, liquid culture, compared to untreated control, 3-4 days after application, read-out: control of Botryotinia fuckeliana
# [5] = tested on: Magnaporthe grisea (Pyricularia oryzae); assay: microbe, parasite or virus in culture; type: cell-based; settings: read-out: control of Magnaporthe grisea
# [6] = tested on: Glomerella lagenarium (Colletotrichum lagenarium); assay: Glomerella lagenarium (Colletotrichum lagenarium)/Liquid Culture (Anthracnose); type: cell-based; settings: Colletotrichum orbiculare; 200 ppm; liquid culture, compared to untreated control, 3-4 days after application; read-out: control of Glomerella lagenarium
# Fusarium culmorum [7] = assay: whole plant or invertebrate; type: in vivo; settings: in Triticum aestivum, read-out: control of Fusarium culmorum
# Gaeumannomyces graminis = assay: Gaeumannomyces graminis/Liquid Culture (Take-all of Cereals); type: cell-based; settings: 200 ppm, liquid culture, compared to untreated control, 4-5 days after application, read-out: control of Gaeumannomyces graminis
Compound,inhibition of growth at 20 ppm (Sclerotinia sclerotiorum) [%],inhibition of growth at 200 ppm (Fusarium culmorum [1]) [%],inhibition of growth at 200 ppm [2] [%],pest or weed control at 200 ppm [3] [%],melting point [°C],inhibition of growth at 200 ppm [4] [%],inhibition of growth at 200 ppm [5] [%],inhibition of growth at 200 ppm [6] [%],pest or weed control at 200 ppm (Fusarium culmorum [7]) [%],inhibition of growth at 200 ppm (Gaeumannomyces graminis) [%]
"Cc1nc2c(Cl)cccc2cc1NC(=O)C(C)(Cc1ccccc1)CC(C)C (centres unmarked) [Compound E-13, 2-benzyl-N-(8-chloro-2-methyl-3-quinolyl)-2,4-dimethyl-pentanamide]",≥ 80,≥ 80,≥ 80,≥ 80,99 to 100,≥ 80,≥ 80,≥ 80,–,–
"Cc1nc2c(Cl)cccc2cc1NC(=O)C(C)(Cc1ccccc1)CC(F)(F)F (centres unmarked) [Compound E-17, 2-benzyl-N-(8-chloro-2-methyl-3-quinolyl)-4,4,4-trifluoro-2-methyl-butanamide]",≥ 80,≥ 80,≥ 80,≥ 80,47 to 50,≥ 80,≥ 80,≥ 80,–,–
"C=C(Cl)CC(C)(Cc1ccccc1)C(=O)Nc1cnc2c(F)cccc2c1C (centres unmarked) [Compound E-20, 2-benzyl-4-chloro-N-(8-fluoro-4-methyl-3-quinolyl)-2-methyl-pent-4-enamide]",≥ 80,≥ 80,≥ 80,≥ 80,124 to 126,≥ 80,≥ 80,≥ 80,≥ 80,–
"C=C(Cl)CC(C)(Cc1ccccc1)C(=O)Nc1cc2cccc(F)c2nc1C (centres unmarked) [Compound E-21, 2-benzyl-4-chloro-N-(8-fluoro-2-methyl-3-quinolyl)-2-methyl-pent-4-enamide]",≥ 80,≥ 80,–,≥ 80,121 to 123,≥ 80,≥ 80,≥ 80,≥ 80,–
"Cc1c(NC(=O)C(Cc2ccccc2)CC(F)(F)F)cnc2c(F)cccc12 (centres unmarked) [Compound E-45, 2-benzyl-4,4,4-trifluoro-N-(8-fluoro-4-methyl-3-quinolyl)butanamide]",≥ 80,≥ 80,–,≥ 80,165 to 167,≥ 80,≥ 80,≥ 80,≥ 80,–
"Cc1c(NC(=O)C(C)(Cc2ccccc2)CC(F)(F)F)cnc2c(F)cccc12 (centres unmarked) [Compound E-50, 2-benzyl-4,4,4-trifluoro-N-(8-fluoro-4-methyl-3-quinolyl)-2-methyl-butanamide]",≥ 80,≥ 80,≥ 80,≥ 80,106 to 109,≥ 80,≥ 80,≥ 80,≥ 80,–
"C=C(C)CC(C)(Cc1ccccc1)C(=O)Nc1cc2cccc(F)c2nc1C (centres unmarked) [Compound E-66, 2-benzyl-N-(8-fluoro-2-methyl-3-quinolyl)-2,4-dimethyl-pent-4-enamide]",–,≥ 80,≥ 80,–,–,≥ 80,≥ 80,≥ 80,≥ 80,≥ 80
"CC(C)(Cc1ccccc1)C(=O)Nc1cnc2c(F)cccc2c1 [Compound E-69, N-(8-fluoro-3-quinolyl)-2,2-dimethyl-3-phenyl-propanamide]",–,≥ 80,≥ 80,–,–,≥ 80,–,≥ 80,≥ 80,≥ 80
"CC(Cc1ccccc1)(CC1CC1(F)F)C(=O)Nc1cnc2c(F)cccc2c1 (centres unmarked) [Compound E-72, 2-benzyl-3-(2,2-difluorocyclopropyl)-N-(8-fluoro-3-quinolyl)-2-methyl-propanamide]",–,≥ 80,≥ 80,–,–,≥ 80,≥ 80,≥ 80,–,≥ 80
"CC(Cc1ccccc1)(CC1CC1(Cl)Cl)C(=O)Nc1cnc2c(F)cccc2c1 (centres unmarked) [Compound E-75, 2-benzyl-3-(2,2-dichlorocyclopropyl)-N-(8-fluoro-3-quinolyl)-2-methyl-propanamide]",–,≥ 80,–,–,–,≥ 80,≥ 80,≥ 80,–,≥ 80
"CCCC(C)(Cc1ccccc1)C(=O)Nc1cnc2c(F)cccc2c1 (centres unmarked) [Compound E-77, 2-benzyl-N-(8-fluoro-3-quinolyl)-2-methyl-pentanamide]",–,≥ 80,≥ 80,–,–,≥ 80,≥ 80,≥ 80,≥ 80,≥ 80
"CC(Cc1ccccc1)(CC(F)(F)F)C(=O)Nc1cnc2c(F)cccc2c1 (centres unmarked) [Compound E-80, 2-benzyl-4,4,4-trifluoro-N-(8-fluoro-3-quinolyl)-2-methyl-butanamide]",≥ 80,≥ 80,≥ 80,≥ 80,–,≥ 80,≥ 80,≥ 80,≥ 80,–
"C=C(C)C[C@@](C)(Cc1ccccc1)C(=O)Nc1cc2cccc(F)c2nc1C [Compound F-1, (2S)-2-benzyl-N-(8-fluoro-2-methyl-3-quinolyl)-2,4-dimethyl-pent-4-enamide]",≥ 80,≥ 80,–,≥ 80,–,≥ 80,≥ 80,≥ 80,≥ 80,–
"C=C(C)C[C@](C)(Cc1ccccc1)C(=O)Nc1cc2cccc(F)c2nc1C [Compound F-2, (2R)-2-benzyl-N-(8-fluoro-2-methyl-3-quinolyl)-2,4-dimethyl-pent-4-enamide]",≥ 80,≥ 80,–,≥ 80,–,≥ 80,≥ 80,≥ 80,≥ 80,–
"C=C(C)C[C@](C)(Cc1ccccc1)C(=O)Nc1cnc2c(F)cccc2c1C [Compound F-6, (2R)-2-benzyl-N-(8-fluoro-4-methyl-3-quinolyl)-2,4-dimethyl-pent-4-enamide]",≥ 80,≥ 80,≥ 80,≥ 80,–,≥ 80,≥ 80,≥ 80,≥ 80,–
"CC1(C[C@](C)(Cc2ccccc2)C(=O)Nc2cnc3c(F)cccc3c2)CC1 [Compound F-9, (2R)-2-benzyl-N-(8-fluoro-3-quinolyl)-2-methyl-3-(1-methylcyclopropyl) propanamide]",≥ 80,≥ 80,≥ 80,≥ 80,62 to 64,≥ 80,≥ 80,≥ 80,≥ 80,–
"Cc1nc2c(F)cccc2cc1NC(=O)[C@](C)(Cc1ccccc1)CC(F)(F)F [Compound F-11, (2R)-2-benzyl-4,4,4-trifluoro-N-(8-fluoro-2-methyl-3-quinolyl)-2-methyl-butanamide]",≥ 80,≥ 80,–,≥ 80,137 to 139,≥ 80,≥ 80,≥ 80,≥ 80,–
"Cc1nc2c(F)cccc2cc1NC(=O)[C@@](C)(Cc1ccccc1)CC(F)(F)F [Compound F-12, (2S)-2-benzyl-4,4,4-trifluoro-N-(8-fluoro-2-methyl-3-quinolyl)-2-methyl-butanamide]",≥ 80,≥ 80,≥ 80,≥ 80,135 to 136,≥ 80,≥ 80,≥ 80,≥ 80,–
"CC(C)C[C@@](C)(Cc1ccccc1)C(=O)Nc1cnc2c(F)cccc2c1 [Compound F-20, (2S)-2-benzyl-N-(8-fluoro-3-quinolyl)-2,4-dimethyl-pentanamide]",–,≥ 80,≥ 80,–,–,≥ 80,–,≥ 80,≥ 80,≥ 80
